Measured values as given in article PMC12334443, “Biochemical Characterization of a Novel, Glucose-Tolerant β-Glucosidase from Jiangella ureilytica KC603, and Determination of Resveratrol Production Capacity from Polydatin” (Applied Biochemistry and Biotechnology, 2025).

Legend:
Type in all cases: biochemical
JurBglKC603 [1] = target: T1, JurBglKC603 (Jiangella ureilytica, UniProt A0A4R4RWQ6, T2A); assay: pNPG hydrolysis with added glucose, relative activity; details: 3 M; 4 mM pNPG, 50 mM sodium citrate pH 6, 35 °C; glucose is also the reaction product
T1 construct: gene E1212_03180; catalytic Glu165 and Glu356
T1 sequence (A0A4R4RWQ6 1-457 T2A): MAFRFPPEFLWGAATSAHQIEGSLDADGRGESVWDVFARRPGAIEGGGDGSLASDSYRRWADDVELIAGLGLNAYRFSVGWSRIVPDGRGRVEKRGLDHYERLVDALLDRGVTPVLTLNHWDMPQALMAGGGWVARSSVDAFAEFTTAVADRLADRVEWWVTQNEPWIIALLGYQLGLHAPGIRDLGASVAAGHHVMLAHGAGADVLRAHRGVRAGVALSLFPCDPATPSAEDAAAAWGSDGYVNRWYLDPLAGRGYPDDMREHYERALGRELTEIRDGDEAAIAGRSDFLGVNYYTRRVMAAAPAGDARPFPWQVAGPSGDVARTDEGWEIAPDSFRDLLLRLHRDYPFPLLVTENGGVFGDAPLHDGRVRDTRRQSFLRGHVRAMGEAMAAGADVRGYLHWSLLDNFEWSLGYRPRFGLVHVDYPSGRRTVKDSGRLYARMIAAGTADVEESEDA
Description: pNPG hydrolysis with added glucose, relative activity on JurBglKC603

JurBglKC603 [2] = target: T1, JurBglKC603; assay: glucose release by GOPOD assay, Lineweaver-Burk; details: 50 mM sodium citrate pH 6, 40 °C, 1 h; substrate 0.2-1 mM
Description: glucose release by GOPOD assay, Lineweaver-Burk on JurBglKC603

JurBglKC603 [3] = target: T1, JurBglKC603; assay: pNP release at […] nm, Lineweaver-Burk; details: 50 mM sodium citrate pH 6, 35 °C; substrate 0.1-7 mM; read-out: Kinetic parameters / Km

`OC[C@H]1OC(O)[C@H](O)[C@@H](O)[C@@H]1O` (stereo partly drawn) [glucose] gave a Glucose tolerance (JurBglKC603 [1]) of 58%.
`OC[C@H]1O[C@@H](Oc2cc(O)cc(/C=C/c3ccc(O)cc3)c2)[C@H](O)[C@@H](O)[C@@H]1O` [polydatin] showed a Km (JurBglKC603 [2]) of 4600 µM.
For `O=[N+]([O-])c1ccc(O[C@@H]2O[C@H](CO)[C@@H](O)[C@H](O)[C@H]2O)cc1` [pNPG, para-nitrophenyl β-D-glucopyranoside], the Km (JurBglKC603 [3]) was 440 µM.
